Results reported in patent US11118162B2, “Cytopheresis cartridges and use thereof” (SeaStar Medical, Inc., priority 2010, dated 2021).

What was measured:
[1] = system: leukocytes in human whole blood; test: In vitro leukocyte activation in heparinized human whole blood; type: cell-based; conditions: for Lactoferrin: n = 4; for Elastase: n = 5
Method: Heparinized human whole blood was added to tubes with or without lipopolysaccharide (LPS) (10 μg/mL) or formyl-Methionyl-Leucyl-Phenylalanine (fMLF, 50 nM). […] The release of IL-6, IL-8, or IL-10 was measured using commercially available ELISA kits from R&D Systems. The release of elastase was measured using a commercially available ELISA kit from Bender MedSystems. The release of lactoferrin was measured using a commercially available ELISA kit from EMD Chemicals. […] Samples were incubated for various times at 37° C. and 5% CO2. CD11b activation was measured using an FITC-conjugated mouse anti-human antibody (AbD Serotech) and evaluated on an Accuri C6 flow cytometer.

[2] = system: leukocytes in porcine blood; test: Microscopic flow chamber: leukocyte interaction with polysulfone SCD membrane; type: cell-based, pig
From the text: A custom microscopic flow chamber system was set up to enable microscopic analysis of leukocyte interaction with the SCD membrane. The flow chamber consisted of a polycarbonate housing with an inlet and outlet for perfusion. A polysulfone membrane was affixed to the polycarbonate block with a gasket which directed shear flow. The thickness of the gasket (100 μm) along with the length (2 cm) and the width of the channel (1.5 mm) determined the volume of the flow chamber. Microscopic imaging was accomplished through an optical window made up of a cover glass affixed to the bottom of the polycarbonate block. Either isolated blood or purified leukocytes were used for this study.
Isolated blood was prone to activation from excessive handling. […] Blood passed through the flow chamber at a rate of 20 μL/min with calculated shear forces between 1-10 dynes/cm^2. […]
Microscopic analysis of cell capture events was accomplished using either a Zeiss Axiovert 200M or Axio-Observer epifluorescence microscope equipped with a microscope stage-top incubator to control environmental temperature and CO2 content. Fluorescence images were acquired with either a Zeiss MRm3 or an Icc1 camera at a frequency of 1 frame/second for 5 minutes, for analysis of leukocyte/membrane interaction, and at 1 frame/minute for 1 hour sequences, for analysis of long term leukocyte attachment. […]

Row | Compound | Lactoferrin ([1]; Baseline) [mg/mL] | Elastase ([1]; Baseline) [mg/mL] | Lactoferrin ([1]; Stimulated (LPS, fMLF)) [mg/mL] | Elastase ([1]; Stimulated (LPS, fMLF)) [mg/mL] | Persistent leukocyte adhesion events ([2]; 1 hour sequences, LPS and citrate versus LPS only) | Rolling events ([2]; LPS and citrate treated blood)
1 | heparin | 8.47 | 2.73 | 12.42 | 4.52 | – | –
2 | O=C(O)CC(O)(CC(=O)O)C(=O)O [Citrate] | – | – | – | – | far fewer | observed increase
